Test results as given in article PMC9696974 (Pharmaceutics, 2022).

What was measured:
[1] = biological target: AT-DNA (poly dAdT-poly dAdT); test: Fluorimetric titration with AT-DNA, Scatchard equation; type: binding; settings: pH 7, sodium cacodylate buffer, I = 0.05 M
Protocol: (§1) Experiments were conducted in an aqueous buffer solution (pH = 7.0 or pH= 5.0, I = 0.05 M, sodium cacodylate buffer). For the UV-Vis spectra were used Varian Cary 100 Bio spectrometer, for fluorescence spectra we used the Varian Cary Eclipse fluorimeter and for CD spectra we used the JASCO J815 spectropolarimeter, all conducted at 25.0 °C using appropriate quartz cuvettes (path length: 1 cm).
(§2) Polynucleotides were purchased as noted: poly dAdT-poly dAdT, poly dGdC-poly dGdC, poly A-poly U (ds-RNA), (Sigma-Aldrich, Schnelldorf, Germany), calf thymus (ct)-DNA (Sigma-Aldrich, Schnelldorf, Germany) and dissolved in sodium cacodylate buffer, I = 0.05 M, pH = 7.0. The ct-DNA was sonicated and filtered through a 0.45 µm filter to obtain mostly short (ca. 100 base pairs) rod-like B-helical DNA fragments. The concentration of DNA or RNA was determined spectroscopically as the c(nucleobase) using producer-provided molar extinction coefficients.
(§3) Fortunately, strong emission from the compounds studied allowed fluorimetric titrations to be performed at much lower concentrations of the dyes (c = 5 × 10^−8 M), thus preventing precipitation of non-methylated 1 or 2, and allowing for the collection of numerous data points at excess of DNA/RNA binding sites over c(dye). […]

[2] = system: poly dGdC-poly dGdC (GC-DNA, p(dGdC)2) (DNA, polymer) GC; test: fluorimetric titration, Scatchard; settings: Na+ (sodium cacodylate, I = 0.05 M); pH 7.0, 25 °C; Scatchard n fixed at 0.2 or 0.3; per base
AU-RNA (poly A-poly U) = test: Fluorimetric titration with AU-RNA, Scatchard equation; type: binding; settings: pH 7, sodium cacodylate buffer, I = 0.05 M
Protocol: as §1, §2, §3

[3] = system: poly A-poly U (AU-RNA, pApU) (RNA, polymer) A/U; test: UV thermal denaturation at 260 nm; settings: Na+ (sodium cacodylate, I = 50 mM); pH 7.0; r = [compound]/[polynucleotide] = 0.2; error ± 0.5 °C; per base
[4] = biological target: GC-DNA (poly dGdC-poly dGdC); test: Fluorimetric titration with GC-DNA, Scatchard equation; type: binding; settings: pH 7, sodium cacodylate buffer, I = 0.05 M
Protocol: as §1, §2, §3

WI-38 cells = test: MTT cell viability assay, WI-38, with or without UV light; type: cell-based, human; settings: WI-38, 10 μM and 1 μM, without UV
Protocol: Cells. Commercially available from American Type Culture Collection (ATCC), human epithelial lung adenocarcinoma A549 (ATCC® CCL-185™) and human normal lung fibroblast WI-38 (ATCC® CCL-75™) were grown according to supplier’s conditions, namely in Dulbecco Modified Eagle’s Medium (DMEM, Sigma Aldrich, St. Louis, MO, USA) supplemented with 10% of fetal bovine serum (FBS, Sigma Aldrich, USA). Cells were incubated in the cell incubator (Thermo Fischer Scientific, Waltham, MA, USA) at 37 °C and 5% CO2 in a humidified atmosphere.
Cell viability assay. In order to obtain a 10 mM stock solution chemical compounds (2M, 1, and 1M) were sterilely diluted in an appropriate volume of dimethyl sulfoxide solution (DMSO, Gram-Mol, Zagreb, Croatia). Solutions were kept in the dark and stored at 4 °C. The cytotoxic effects of each compound were assayed on A549 and WI-38 cells. […] Briefly, cells were seeded in 96-well tissue culture plates and 24 h later treated with 2M, 1, or 1M in the concentration range of 10–0.1 μM. Cells treated with the same dilutions of DMSO represented the control, while cells treated only with DMEM (10% FBS) represented the negative control. […] The resulting MTT-formazan products were dissolved using DMSO, and their absorbance at 600 nm was measured using a microplate reader. […]

[5] = system: pApU (poly A-poly U, ds-RNA); test: Thermal denaturation of pApU ds-RNA (∆Tm); type: binding; settings: I = 50 mM
Protocol: as §1, §2
(§4) Thermal denaturation of ds-DNA, ds-RNA and their complexes with studied compounds was performed by monitoring the absorption change at 260 nm as a function of temperature. Tm values are the midpoints of the transition curves determined from the maximum of the first derivative and checked graphically by the tangent method. The ∆Tm values were calculated by subtracting the Tm of the free nucleic acid from the Tm of the complex. Every ∆Tm value here reported was the average of at least two measurements. The error in ∆Tm is ± 0.5 °C.

pUC19 plasmid DNA = test: Plasmid electrophoresis, photoinduced DNA nuclease activity; type: biochemical; settings: 100 μM compound; for Photo-induced nuclease activity on plasmid DNA: 1 μg pUC19, UV light 15 and 45 s; for Effect on plasmid DNA forms without UV irradiation: 1 μg pUC19, non-irradiated
Protocol: Plasmid electrophoresis. For assessing the photoinduced DNA nuclease activity of compounds 2M, 1 and 1M, 1 μg of pUC19 plasmid DNA (2686 pb) was incubated with a 100 μM solution of the respective compound, and exposed to UV light (using a xenon arc lamp, Oriel, Stratford, CT, USA) for 15 and 45 s. After the treatment plasmid samples were run on 0.5% agarose gel, and stained with Midori Green DNA binding dye (Nippon Genetics, Düren, Germany). Non-irradiated samples containing compounds and plasmid DNA served as a control for assessing the photoinduced nuclease activity of the compound. Plasmid without the compound was irradiated with UV light under the same conditions to determine whether UV light itself induces changes in plasmid DNA forms (linear and supercoiled form). After gel electrophoresis, plasmid DNA forms were visualised on a UVITEC Imager (Cleaver Scientific, Rugby, UK).

ct-DNA = test: Thermal denaturation of ct-DNA (∆Tm); type: binding, calf; settings: I = 50 mM
Protocol: as §1, §2, §4

[6] = r = 0.2, pH 7.0, sodium cacodylate buffer
[7] = r = 0.3, pH 7.0, sodium cacodylate buffer

SMILES | Binding constant logKs AT-DNA [1] | logKs [2] | Binding constant logKs AU-RNA (AU-RNA (poly A-poly U)) | ∆Tm [3] [°C] | Binding constant logKs GC-DNA [4] | Cytotoxic effect relative to A549 (WI-38 cells) | ∆Tm pApU [5, 6] [°C] | ∆Tm pApU [5, 7] [°C] | Photo-induced nuclease activity on plasmid DNA (pUC19 plasmid DNA) | Effect on plasmid DNA forms without UV irradiation (pUC19 plasmid DNA) | ∆Tm ct-DNA (ct-DNA; [6]) | ∆Tm ct-DNA (ct-DNA; [7]) | ∆Tm ct-DNA (ct-DNA; r = 0.1, pH 5.0, sodium cacodylate buffer) [°C] | ∆Tm ct-DNA (ct-DNA; r = 0.3, pH 5.0, sodium cacodylate buffer) [°C]
C[n+]1ccc(-c2cc3ccc4cccc5ccc(c2)c3c45)cc1 [1M, 2-para-N-methylpyridinium pyrene] | 5.9 | 7.0 | 5.8 | 3 | 7.0 | somewhat more resilient | 3 | 3 | strong photo-induced nuclease activity | nicking of the plasmid DNA | – | – | – | –
C[n+]1ccc(-c2cc3ccc4cc(-c5cc[n+](C)cc5)cc5ccc(c2)c3c45)cc1 [2M] | 7.1 | 9.1 | 8.5 | 4 | 9.1 | somewhat more resilient | 4 | – | strong photo-induced nuclease activity | unwinding of supercoiled DNA even without UV irradiation | ^d >16 °C | ^d >16 °C | – | –
c1cc2ccc3cc(-c4ccncc4)cc4ccc(c1)c2c34 [compound 1] | – | – | – | – | – | – | – | – | did not show any influence on DNA plasmid forms | – | – | – | 0 | 2
